Measured values: patent US20090111836A1, “Angular Pyranocoumarins, Process for Preparation and Uses Thereof” (CITY UNIVERSITY OF HONG KONG, priority 2007, published 2009)
Entries after “also recorded” stand apart in the source; their conditions may differ.

Assays:
P-gp [1] = test: Immunoblotting analysis of P-gp expression, HepG2-DR; format: cell-based, human; settings: 4 μM, 72 hours
Description: Immunoblotting analysis of P-gp expression: cells were treated with 4 μM of cis-DMDCK, 4 μM of cis-DMDBK, 4 μM of trans-DMDCK, or 4 μM of trans-DMDBK for 72 hours. Treated cells were collected and mixed well in ice-cold lysis buffer (50 mM Tris pH7.4, 100 mM NaCl, 2 mM EDTA, 1% sodium deoxycholate, 0.1% SDS, 1% triton X-100, 2 mM PMSF, 1% aprotinin) for 30 minutes and then centrifuged to get the total protein. Protein concentration was determined using Bradford assay. In this experiment, 50 μg total protein was separated by 8% SDS-PAGE and electro-transferred to nitrocellulose membranes. The membrane was blocked by 5% skim milk/0.1% Tween-20/TBS (10 mM Tris pH7.5, 100 mM NaCl), and then incubated with anti-P-pg antibody for 1 hour, followed by horseradish-peroxidase-conjugated secondary antibody for another 1 hour. Protein bands were detected by the ECL method.

HepG2-DR cells = test: Cell cycle distribution by flow cytometry (doxorubicin-induced G2/M arrest), HepG2-DR; format: cell-based, human; settings: HepG2-DR; for Cell cycle distribution, G0/G1 / Cell cycle distribution, G2/M / Cell cycle distribution, S / Cell cycle distribution, SubG1: 48 h; for Concentration of test compound that reduced the effective doxorubicin concentration (G2/M arrest) from 50 to 1 μM: combination with doxorubicin
Description: 1.2 Instruments: FACSCAN flow cytometry (Becton Dickinson Immunocytometry Systems, San Jose, Calif.), the obtained data were analyzed using the software of Macintosh CellQuest.
1.3 Cell lines: HepG2, HepG2-DR.
1.4 Drug treatment: HepG2 and HepG2-DR cells were respectively treated with each of cis-DMDCK, cis-DMDBK, trans-DMDCK, trans-DMDBK and doxorubicin for 48 hours, or treated respectively with the combination of doxorubicin and one of cis-DMDCK, cis-DMDBK, trans-DMDCK, trans-DMDBK for 48 hours.
1.5 Treatment and detection of sample cells: after washed twice by ice-cold PBS, the cells were fixed with 70% ethanol at −20° C. overnight. The fixed cells were washed by PBS once and resuspended in 1 mL of PBS containing 100 μg/mL RNAase A and incubated at 37° C. for 30 minutes. Finally, propidium iodide solution (final concentration is 40 μg/mL,) was added to bind with DNA and incubated at room temperature for 5-10 minutes. Cells were analyzed by FACSCAN flow cytometry immediately.

K562-DR cells = test: Reversal of multidrug resistance (fold decrease of anticancer drug IC50), K562-DR; format: cell-based, human; settings: 4 μM test compound
Description: Cells and cell culture: cell lines used in the experiments are human hepatoma cell line (HepG2), human leukemia cell line (K562), human epidermoid carcinoma cell line (KB-3-1) and their multidrug resistant sublines HepG2-DR, K562-DR. and KB V1. The culture conditions for all cells are following: at 37° C. and 5% CO2), KB-3-1 and KBV1 were cultured in MEM medium containing 10% fetal bovine serum and 100 U/mL antibiotics; K562, K562-DR, HepG2, HepG2-DR were cultured in RPMI-1640 medium containing 10% fetal bovine serum and 100 U/mL, antibiotics. For maintaining the phenotypic characteristics of multidrug resistance, 1.2 μM and 0.1 μM doxorubicin were respectively added into the mediums of HepG2-DR and K562-DR; 200 ng/mL vinblastine was added into the medium of KBV1. Drug resistant cells were grown in drug free medium for at least 7 days before test.
Each growth inhibition experiment must be repeated three times and results are expressed as mean±standard deviation (SD). Solvents and media were included as blank control.
In MTT assay, cells are inoculated at 5000 cells/well and are incubated overnight. Drug treatment lasts for 68 h. MTT (5 mg/ml in PBS) is added to each well (1:10 dilution). After incubation for 4 hour at 37° C., 5% CO2, 100 μl of stop solution (10% SDS-50% isobutanol-0.01N HCl) is added to each well to stop the reaction. Viable cell number is estimated by correlating to OD at 570 nm.
1. Materials and methods: the same with I.
To evaluate the multidrug resistance reversing ability of (±)-Praeruptorin A derivatives, IC50 values of anticancer drugs in the presence and absence of cis-DMDCK, cis-DMDBK, trans-DMDCK, or trans-DMDBK at certain concentration were determined in HepG2-DR, K562-DR and KB V1 cells. The fold decrease of IC50 value of an anticancer drug in certain cell line achieved by a test compound is calculated (fold decrease=IC50 of an anti-tumor drug alone/IC50 of the anti-tumor drug in combination with the test compound) and is used for evaluating the ability of the test compound to reduce drug resistance. The larger the fold decrease value is, the stronger its ability to reverse drug resistance is. The results were average values of three repetitive tests. Verapamil (P-glycoprotein modulator) is the positive control.

P-gp [2] = molecular target: P-gp (Homo sapiens, UniProt P08183); test: Hoechst 33342 efflux assay, HepG2-DR; format: cell-based; parameters: KB V1, HepG2-DR and K562-DR cell expressed P-gp at high level when compared with parental drug sensitive cells thereof; endogenous in cells; host or cells: HepG2-DR (doxorubicin-maintained multidrug resistant subline of HepG2); settings: 20 μM
Description: Relative amount of intracellular H33342 (%)=100×(FS−F0)/F0
(Fs: cellular fluorescence intensity of H33342 in the presence of a testing drug; F0: cellular fluorescence intensity of H33342 in the absence of any P-gp modulator).
1.4 Hoechst 33342 transport test: HepG2-DR Cells (5×10^4 cells in 100 μL, medium per well) were seeded in 96-well plate and incubated overnight to permit cell attachment. The medium was replaced with fresh medium containing 20 μg/mL Hoechst 33342 and cells were incubated at 37° C. for 1 hour. Cells were then washed with 100 μL ice-cold PBS twice. New medium containing the test compound of various concentrations was added and cells were further incubated at 37° C. for 1 hour. Cells were washed with ice-cold PBS twice and cellular fluorescence intensity was measured at λex=365 nm (λem=460 nm) by a BMG FLUOstar OPTIMA Microplate Reader. Inhibitory effect of the test compound on Hoechst 33342 efflux was expressed as the percentage increase of retained Hoechst 33342 in cells.

[3] = 1 μM doxorubicin + 1 μM test compound
[4] = 1 μM doxorubicin + 2 μM test compound
[5] = 1 μM doxorubicin + 4 μM test compound

Sequence of P-gp (Homo sapiens, UniProt P08183) (P08183 whole entry): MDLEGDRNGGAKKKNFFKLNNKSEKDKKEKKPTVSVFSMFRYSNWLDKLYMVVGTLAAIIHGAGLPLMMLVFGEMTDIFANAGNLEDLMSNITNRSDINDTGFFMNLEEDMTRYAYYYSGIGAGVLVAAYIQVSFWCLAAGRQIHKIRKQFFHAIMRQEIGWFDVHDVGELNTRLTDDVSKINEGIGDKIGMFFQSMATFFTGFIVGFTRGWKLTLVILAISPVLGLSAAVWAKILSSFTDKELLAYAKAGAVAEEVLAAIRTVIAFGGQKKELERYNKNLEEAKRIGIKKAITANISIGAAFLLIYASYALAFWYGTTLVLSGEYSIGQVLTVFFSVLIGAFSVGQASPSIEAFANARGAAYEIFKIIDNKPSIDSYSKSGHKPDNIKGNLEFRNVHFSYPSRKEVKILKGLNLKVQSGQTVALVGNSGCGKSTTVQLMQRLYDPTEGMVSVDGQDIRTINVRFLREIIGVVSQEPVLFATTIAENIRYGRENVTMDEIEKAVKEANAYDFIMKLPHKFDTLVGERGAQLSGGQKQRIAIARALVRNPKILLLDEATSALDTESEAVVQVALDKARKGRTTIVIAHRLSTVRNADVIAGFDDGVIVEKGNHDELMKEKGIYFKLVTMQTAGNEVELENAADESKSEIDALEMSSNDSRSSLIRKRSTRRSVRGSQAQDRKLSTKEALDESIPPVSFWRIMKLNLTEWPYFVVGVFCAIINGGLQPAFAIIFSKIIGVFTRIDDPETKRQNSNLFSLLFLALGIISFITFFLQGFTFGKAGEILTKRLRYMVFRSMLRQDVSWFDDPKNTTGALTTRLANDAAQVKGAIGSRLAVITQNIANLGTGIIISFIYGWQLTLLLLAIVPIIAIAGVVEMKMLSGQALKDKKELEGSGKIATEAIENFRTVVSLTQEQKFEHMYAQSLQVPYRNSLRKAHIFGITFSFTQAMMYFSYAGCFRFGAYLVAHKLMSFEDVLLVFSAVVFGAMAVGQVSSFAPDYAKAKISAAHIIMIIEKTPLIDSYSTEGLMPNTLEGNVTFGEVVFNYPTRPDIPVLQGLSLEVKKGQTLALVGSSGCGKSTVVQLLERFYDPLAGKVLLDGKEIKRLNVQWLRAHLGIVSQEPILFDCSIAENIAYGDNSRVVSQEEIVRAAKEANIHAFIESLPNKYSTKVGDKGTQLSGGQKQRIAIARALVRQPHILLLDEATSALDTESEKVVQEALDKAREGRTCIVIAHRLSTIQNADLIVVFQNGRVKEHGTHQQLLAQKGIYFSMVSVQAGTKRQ

Row | SMILES | Change in P-gp (MDR1) expression level (P-gp [1]) | Cell cycle distribution, G0/G1 (HepG2-DR cells; [3]) [%] | Cell cycle distribution, G2/M (HepG2-DR cells; [3]) [%] | Cell cycle distribution, S (HepG2-DR cells; [3]) [%] | Cell cycle distribution, SubG1 (HepG2-DR cells; [3]) [%] | Cell cycle distribution, G0/G1 (HepG2-DR cells; [4]) [%] | Cell cycle distribution, G2/M (HepG2-DR cells; [4]) [%] | Cell cycle distribution, S (HepG2-DR cells; [4]) [%] | Cell cycle distribution, SubG1 (HepG2-DR cells; [4]) [%] | Cell cycle distribution, G0/G1 (HepG2-DR cells; [5]) [%] | Cell cycle distribution, G2/M (HepG2-DR cells; [5]) [%] | Cell cycle distribution, S (HepG2-DR cells; [5]) [%] | Cell cycle distribution, SubG1 (HepG2-DR cells; [5]) [%] | Effect on cell cycle by itself (HepG2-DR cells; 4 μM alone) | Cell cycle distribution, G0/G1 (HepG2-DR cells; 4 μM alone) [%] | Cell cycle distribution, G2/M (HepG2-DR cells; 4 μM alone) [%] | Cell cycle distribution, S (HepG2-DR cells; 4 μM alone) [%] | Cell cycle distribution, SubG1 (HepG2-DR cells; 4 μM alone) [%] | Concentration of test compound that reduced the effective doxorubicin concentration (G2/M arrest) from 50 to 1 μM (HepG2-DR cells) [µM] | Reversing parameter: fold decrease of IC50, verapamil (K562-DR cells) [fold] | also measured
1 | COc1ccc(C(=O)O[C@@H]2[C@@H](OC(=O)c3ccc(OC)c(OC)c3)c3c(ccc4ccc(=O)oc34)OC2(C)C)cc1OC (racemic) [trans-DMDBK, (±)-3′-O,4′-O-bis(3,4-dimethoxybenzoyl)-trans-khellactone] | no detectable alteration; also recorded: not observed | 34.60 ± 2.58 | 49.53 ± 0.69 | 7.61 ± 3.69 | 3.31 ± 0.89 | 17.56 ± 2.20 | 67.89 ± 1.19 | 7.03 ± 2.34 | 5.30 ± 2.52 | 5.37 ± 1.06 | 81.56 ± 2.62 | 4.71 ± 3.62 | 5.11 ± 2.84 | no effect | 49.57 ± 0.15 | 34.41 ± 3.70 | 6.17 ± 1.55 | 1.33 ± 0.24 | 4 | 9.8 ± 2.1 | Reversing parameter: fold decrease of IC50 of Doxorubicin (K562-DR cells): 7.0 ± 2.2 fold; Reversing parameter: fold decrease of IC50 of Puromycin (K562-DR cells): 6.7 ± 0.4 fold; Reversing parameter: fold decrease of IC50 of Vinblastine (K562-DR cells): 11.0 ± 0.6 fold; Highest increase of cellular Hoechst 33342 fluorescence (P-gp [2]): about 150%
2 | COc1ccc(/C=C/C(=O)O[C@@H]2[C@@H](OC(=O)/C=C/c3ccc(OC)c(OC)c3)c3c(ccc4ccc(=O)oc34)OC2(C)C)cc1OC (racemic) [trans-DMDCK, (±)-3′-O,4′-O-bis(3,4-dimethoxycinnamoyl)-trans-khellactone] | no detectable alteration; also recorded: not observed | 34.29 ± 0.21 | 48.46 ± 2.52 | 8.80 ± 3.64 | 3.94 ± 0.77 | 21.21 ± 1.48 | 64.06 ± 3.56 | 5.79 ± 4.05 | 6.55 ± 0.12 | 6.03 ± 0.91 | 79.52 ± 0.66 | 5.70 ± 4.20 | 4.29 ± 1.99 | no effect | 47.46 ± 0.55 | 33.42 ± 1.98 | 7.97 ± 1.05 | 2.07 ± 0.06 | 4 | 27.8 ± 8.7 | Reversing parameter: fold decrease of IC50 of Doxorubicin (K562-DR cells): 16.1 ± 9.6 fold; Reversing parameter: fold decrease of IC50 of Puromycin (K562-DR cells): 31.1 ± 16.7 fold; Reversing parameter: fold decrease of IC50 of Vinblastine (K562-DR cells): 31.6 ± 5.1 fold; Highest increase of cellular Hoechst 33342 fluorescence (P-gp [2]): about 150%
